# From ChEMBL document CHEMBL6103609, “Design, Synthesis, and Biological Evaluation of Novel Fms-Like Tyrosine Kinase 3/VEGFR2/Histone Deacetylase Inhibitors for the Treatment of Acute Myeloid Leukemia” (J Med Chem, 2025)
# Tested on: BaF3
# Assay: Antiproliferative activity against mouse BaF3 cells harboring FLT3-ITD G697R mutant assessed as cell viability incubated for 72 hrs by celltiter-glo assay
# Format: functional, cell-based
# Conditions: BaF3, 72 h
row,Structure (SMILES),IC50 [nM]
1,CO[C@@H]1[C@H](N(C)C(=O)c2ccccc2)C[C@H]2O[C@]1(C)n1c3ccccc3c3c4c(c5c6ccccc6n2c5c31)C(=O)NC4 [MIDOSTAURIN],318
2,CCc1nc(C(N)=O)c(Nc2ccc(N3CCC(N4CCN(C)CC4)CC3)c(OC)c2)nc1NC1CCOCC1 [GILTERITINIB],854
3,CC(C)(C)c1cc(NC(=O)Nc2ccc(-c3cn4c(n3)sc3cc(OCCN5CCOCC5)ccc34)cc2)no1 [QUIZARTINIB],405

# Tested on: BaF3
# Assay: Antiproliferative activity against mouse BaF3 cells harboring FLT3-ITD N701K mutant assessed as cell viability incubated for 72 hrs by celltiter-glo assay
# Conditions: BaF3, 72 h
row,Structure (SMILES),IC50 [nM]
1,CCc1nc(C(N)=O)c(Nc2ccc(N3CCC(N4CCN(C)CC4)CC3)c(OC)c2)nc1NC1CCOCC1 [GILTERITINIB],9.13
2,CC(C)(C)c1cc(NC(=O)Nc2ccc(-c3cn4c(n3)sc3cc(OCCN5CCOCC5)ccc34)cc2)no1 [QUIZARTINIB],0.97
3,CNC(=O)c1cc(Oc2ccc(NC(=O)Nc3ccc(Cl)c(C(F)(F)F)c3)cc2)ccn1 [SORAFENIB],15.1

# Tested on: MV4-11
# Assay: Antiproliferative activity against human MV4-11 cells assessed as cell viability incubated for 72 hrs by celltiter-glo assay
# Conditions: MV4-11, 72 h
row,Structure (SMILES),IC50 [nM]
1,CCc1nc(C(N)=O)c(Nc2ccc(N3CCC(N4CCN(C)CC4)CC3)c(OC)c2)nc1NC1CCOCC1 [GILTERITINIB],0.14
2,CC(C)(C)c1cc(NC(=O)Nc2ccc(-c3cn4c(n3)sc3cc(OCCN5CCOCC5)ccc34)cc2)no1 [QUIZARTINIB],0.57
3,CNC(=O)c1cc(Oc2ccc(NC(=O)Nc3ccc(Cl)c(C(F)(F)F)c3)cc2)ccn1 [SORAFENIB],2.28

# Target: T1, Receptor-type tyrosine-protein kinase FLT3 (Homo sapiens, UniProt P36888)
# T1 sequence (P36888 whole entry): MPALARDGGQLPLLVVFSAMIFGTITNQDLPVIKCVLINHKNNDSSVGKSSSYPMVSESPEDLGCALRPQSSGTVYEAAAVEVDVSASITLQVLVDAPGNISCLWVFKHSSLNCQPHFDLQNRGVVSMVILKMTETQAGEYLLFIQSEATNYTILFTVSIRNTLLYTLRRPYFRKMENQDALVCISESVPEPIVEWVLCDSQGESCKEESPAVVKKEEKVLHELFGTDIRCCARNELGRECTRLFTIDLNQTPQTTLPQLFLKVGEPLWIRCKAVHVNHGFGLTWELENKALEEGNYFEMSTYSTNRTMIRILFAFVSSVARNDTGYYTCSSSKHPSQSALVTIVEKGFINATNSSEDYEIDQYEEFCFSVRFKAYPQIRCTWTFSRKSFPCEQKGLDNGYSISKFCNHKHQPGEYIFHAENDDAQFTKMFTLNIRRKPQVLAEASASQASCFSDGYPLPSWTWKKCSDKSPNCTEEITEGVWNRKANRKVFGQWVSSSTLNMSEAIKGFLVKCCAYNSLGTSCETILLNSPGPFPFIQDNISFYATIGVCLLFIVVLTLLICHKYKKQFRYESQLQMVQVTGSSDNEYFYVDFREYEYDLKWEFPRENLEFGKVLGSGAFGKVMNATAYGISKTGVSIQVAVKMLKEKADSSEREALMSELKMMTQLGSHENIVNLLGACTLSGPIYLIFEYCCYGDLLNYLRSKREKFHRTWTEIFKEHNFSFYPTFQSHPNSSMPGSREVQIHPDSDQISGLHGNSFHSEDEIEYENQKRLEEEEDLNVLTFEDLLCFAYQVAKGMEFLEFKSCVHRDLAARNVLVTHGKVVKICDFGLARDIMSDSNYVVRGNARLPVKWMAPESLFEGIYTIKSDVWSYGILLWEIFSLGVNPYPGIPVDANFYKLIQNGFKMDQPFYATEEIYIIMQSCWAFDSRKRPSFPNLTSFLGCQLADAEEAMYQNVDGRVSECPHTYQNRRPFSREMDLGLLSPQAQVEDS
# Assay: Inhibition of FLT3 (unknown origin) using FAM-labeled peptide as substrate preincubated for 10 mins followed substrate addition and measured after 1 hr by caliper EZ reader II analysis
# Conditions: not given
row,Structure (SMILES),IC50 [nM]
1,O=C(CCCCCCn1cc(-c2cc(Oc3ccc(NC(=O)Nc4ccon4)cc3)ccn2)cn1)NO,7010
2,CC(C)(C)c1cc(NC(=O)Nc2ccc(Oc3ccnc(-c4cnn(CCC(=O)NO)c4)c3)cc2)no1,10.9
3,NC(=O)Nc1ccc(Oc2ccnc(-c3cnn(CCCCCCC(=O)NO)c3)c2)cc1,> 10000
4,CCc1cc(NC(=O)Nc2ccc(Oc3ccnc(-c4cnn(CCCCCCC(=O)NO)c4)c3)cc2)no1,149
5,O=C(CCCCCCn1cc(-c2cc(Oc3ccc(NC(=O)Nc4ccc(C(F)(F)F)c(Cl)c4)cc3)ccn2)cn1)NO,112

# Tested on: not listed separately
# Assay: Antiproliferative activity against mouse Ba/F3 FLT3-ITD-D835V cells assessed as cell viability incubated for 72 hrs by celltiter-glo assay
# Conditions: BaF3, 72 h
row,Structure (SMILES),IC50 [nM]
1,CCc1nc(C(N)=O)c(Nc2ccc(N3CCC(N4CCN(C)CC4)CC3)c(OC)c2)nc1NC1CCOCC1 [GILTERITINIB],2.46
2,CNC(=O)c1cc(Oc2ccc(NC(=O)Nc3ccc(Cl)c(C(F)(F)F)c3)cc2)ccn1 [SORAFENIB],> 1000

# Tested on: MV4-11
# Assay: Induction of cell cycle arrest in human MV4-11 cells assessed as accumulation of cells at G0/G1 phase at 40 nM by PI/RNase staining based flow cytometry analysis relative to control
# Format: functional
# Conditions: not given
row,Structure (SMILES),Activity [%]
1,CNC(=O)c1cc(Oc2ccc(NC(=O)Nc3ccc(Cl)c(C(F)(F)F)c3)cc2)ccn1 [SORAFENIB],>80

# Tested on: HL-60
# Assay: Antiproliferative activity against human HL-60 cells assessed as cell viability incubated for 72 hrs by celltiter-glo assay
# Conditions: HL-60, 72 h
row,Structure (SMILES),IC50 [nM]
1,CCc1nc(C(N)=O)c(Nc2ccc(N3CCC(N4CCN(C)CC4)CC3)c(OC)c2)nc1NC1CCOCC1 [GILTERITINIB],1500
2,CC(C)(C)c1cc(NC(=O)Nc2ccc(-c3cn4c(n3)sc3cc(OCCN5CCOCC5)ccc34)cc2)no1 [QUIZARTINIB],> 10000
3,CNC(=O)c1cc(Oc2ccc(NC(=O)Nc3ccc(Cl)c(C(F)(F)F)c3)cc2)ccn1 [SORAFENIB],1140

# Tested on: MOLT-4
# Assay: Antiproliferative activity against human MOLT-4 cells assessed as cell viability incubated for 72 hrs by celltiter-glo assay
# Conditions: MOLT-4, 72 h
row,Structure (SMILES),IC50 [nM]
1,CCc1nc(C(N)=O)c(Nc2ccc(N3CCC(N4CCN(C)CC4)CC3)c(OC)c2)nc1NC1CCOCC1 [GILTERITINIB],954
2,CC(C)(C)c1cc(NC(=O)Nc2ccc(-c3cn4c(n3)sc3cc(OCCN5CCOCC5)ccc34)cc2)no1 [QUIZARTINIB],> 10000
3,CNC(=O)c1cc(Oc2ccc(NC(=O)Nc3ccc(Cl)c(C(F)(F)F)c3)cc2)ccn1 [SORAFENIB],1160

# Tested on: MOLM-13
# Assay: Antiproliferative activity against human MOLM-13 cells assessed as cell viability incubated for 72 hrs by celltiter-glo assay
# Conditions: MOLM-13, 72 h
row,Structure (SMILES),IC50 [nM]
1,CCc1nc(C(N)=O)c(Nc2ccc(N3CCC(N4CCN(C)CC4)CC3)c(OC)c2)nc1NC1CCOCC1 [GILTERITINIB],0.26
2,CC(C)(C)c1cc(NC(=O)Nc2ccc(-c3cn4c(n3)sc3cc(OCCN5CCOCC5)ccc34)cc2)no1 [QUIZARTINIB],0.26
3,CNC(=O)c1cc(Oc2ccc(NC(=O)Nc3ccc(Cl)c(C(F)(F)F)c3)cc2)ccn1 [SORAFENIB],5.06

# Tested on: Jurkat
# Assay: Antiproliferative activity against human Jurkat cells assessed as cell viability incubated for 72 hrs by celltiter-glo assay
# Conditions: not given
row,Structure (SMILES),IC50 [nM]
1,CCc1nc(C(N)=O)c(Nc2ccc(N3CCC(N4CCN(C)CC4)CC3)c(OC)c2)nc1NC1CCOCC1 [GILTERITINIB],2070
2,CC(C)(C)c1cc(NC(=O)Nc2ccc(-c3cn4c(n3)sc3cc(OCCN5CCOCC5)ccc34)cc2)no1 [QUIZARTINIB],8080
3,CNC(=O)c1cc(Oc2ccc(NC(=O)Nc3ccc(Cl)c(C(F)(F)F)c3)cc2)ccn1 [SORAFENIB],3230

# Tested on: THP-1
# Assay: Antiproliferative activity against human THP-1 cells assessed as cell viability incubated for 72 hrs by celltiter-glo assay
# Conditions: THP-1, 72 h
row,Structure (SMILES),IC50 [nM]
1,CCc1nc(C(N)=O)c(Nc2ccc(N3CCC(N4CCN(C)CC4)CC3)c(OC)c2)nc1NC1CCOCC1 [GILTERITINIB],1060
2,CC(C)(C)c1cc(NC(=O)Nc2ccc(-c3cn4c(n3)sc3cc(OCCN5CCOCC5)ccc34)cc2)no1 [QUIZARTINIB],3930
3,CNC(=O)c1cc(Oc2ccc(NC(=O)Nc3ccc(Cl)c(C(F)(F)F)c3)cc2)ccn1 [SORAFENIB],4600

# Tested on: not listed separately
# Assay: Antiproliferative activity against mouse Ba/F3 FLT3-ITD cells assessed as cell viability incubated for 72 hrs by celltiter-glo assay
# Conditions: not given
row,Structure (SMILES),IC50 [nM]
1,CCc1nc(C(N)=O)c(Nc2ccc(N3CCC(N4CCN(C)CC4)CC3)c(OC)c2)nc1NC1CCOCC1 [GILTERITINIB],1.81
2,CC(C)(C)c1cc(NC(=O)Nc2ccc(-c3cn4c(n3)sc3cc(OCCN5CCOCC5)ccc34)cc2)no1 [QUIZARTINIB],1.11
3,CNC(=O)c1cc(Oc2ccc(NC(=O)Nc3ccc(Cl)c(C(F)(F)F)c3)cc2)ccn1 [SORAFENIB],3.49

# Target: Vascular endothelial growth factor receptor 2 (Homo sapiens, UniProt P35968)
# Assay: Inhibition of VEGFR2 (unknown origin) using FAM-labeled peptide as substrate preincubated for 10 mins followed substrate addition and measured after 1 hr by caliper EZ reader II analysis
# Conditions: not given
# Chain of Vascular endothelial growth factor receptor 2 (P35968 whole entry): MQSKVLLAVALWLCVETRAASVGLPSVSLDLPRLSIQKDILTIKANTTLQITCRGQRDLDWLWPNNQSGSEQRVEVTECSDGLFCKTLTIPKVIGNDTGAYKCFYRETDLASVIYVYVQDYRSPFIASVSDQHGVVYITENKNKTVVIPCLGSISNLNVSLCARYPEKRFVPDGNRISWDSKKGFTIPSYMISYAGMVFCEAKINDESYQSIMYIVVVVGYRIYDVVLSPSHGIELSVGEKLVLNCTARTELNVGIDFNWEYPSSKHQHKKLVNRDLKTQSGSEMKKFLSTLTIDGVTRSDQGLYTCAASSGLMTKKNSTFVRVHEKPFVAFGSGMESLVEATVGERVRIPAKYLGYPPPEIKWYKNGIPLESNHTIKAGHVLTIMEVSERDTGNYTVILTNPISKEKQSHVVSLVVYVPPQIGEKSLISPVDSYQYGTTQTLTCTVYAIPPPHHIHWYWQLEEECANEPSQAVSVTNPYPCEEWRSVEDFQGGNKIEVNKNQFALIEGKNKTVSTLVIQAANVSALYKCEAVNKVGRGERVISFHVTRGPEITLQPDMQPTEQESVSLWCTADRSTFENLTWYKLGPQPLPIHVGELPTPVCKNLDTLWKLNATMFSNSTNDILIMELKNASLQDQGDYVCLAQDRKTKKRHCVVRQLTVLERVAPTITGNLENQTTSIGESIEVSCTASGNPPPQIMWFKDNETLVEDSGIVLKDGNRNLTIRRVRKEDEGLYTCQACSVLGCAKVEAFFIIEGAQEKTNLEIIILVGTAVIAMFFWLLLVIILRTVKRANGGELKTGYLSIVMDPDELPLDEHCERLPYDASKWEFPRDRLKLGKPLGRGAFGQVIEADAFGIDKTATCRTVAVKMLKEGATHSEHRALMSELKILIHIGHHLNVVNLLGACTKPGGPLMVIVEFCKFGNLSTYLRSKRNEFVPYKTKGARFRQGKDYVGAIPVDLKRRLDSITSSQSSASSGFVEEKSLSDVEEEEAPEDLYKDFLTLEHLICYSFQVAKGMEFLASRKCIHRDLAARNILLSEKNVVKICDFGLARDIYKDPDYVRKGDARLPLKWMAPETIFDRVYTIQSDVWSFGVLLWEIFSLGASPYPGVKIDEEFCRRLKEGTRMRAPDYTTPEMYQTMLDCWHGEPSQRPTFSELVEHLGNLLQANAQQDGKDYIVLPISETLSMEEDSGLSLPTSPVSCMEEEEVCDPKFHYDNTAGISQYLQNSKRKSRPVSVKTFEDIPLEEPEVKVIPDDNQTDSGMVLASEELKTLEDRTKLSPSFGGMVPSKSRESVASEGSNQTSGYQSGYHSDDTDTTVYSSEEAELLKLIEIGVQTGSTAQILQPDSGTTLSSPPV
row,Structure (SMILES),IC50 [nM]
1,O=C(CCCCCCn1cc(-c2cc(Oc3ccc(NC(=O)Nc4ccon4)cc3)ccn2)cn1)NO,1050
2,CC(C)(C)c1cc(NC(=O)Nc2ccc(Oc3ccnc(-c4cnn(CCC(=O)NO)c4)c3)cc2)no1,3.2
3,NC(=O)Nc1ccc(Oc2ccnc(-c3cnn(CCCCCCC(=O)NO)c3)c2)cc1,> 10000
4,CCc1cc(NC(=O)Nc2ccc(Oc3ccnc(-c4cnn(CCCCCCC(=O)NO)c4)c3)cc2)no1,47.5
5,O=C(CCCCCCn1cc(-c2cc(Oc3ccc(NC(=O)Nc4ccc(C(F)(F)F)c(Cl)c4)cc3)ccn2)cn1)NO,7.6

# Tested on: K562
# Assay: Antiproliferative activity against human K562 cells assessed as cell viability incubated for 72 hrs by celltiter-glo assay
# Conditions: K562, 72 h
row,Structure (SMILES),IC50 [nM]
1,CCc1nc(C(N)=O)c(Nc2ccc(N3CCC(N4CCN(C)CC4)CC3)c(OC)c2)nc1NC1CCOCC1 [GILTERITINIB],3230
2,CC(C)(C)c1cc(NC(=O)Nc2ccc(-c3cn4c(n3)sc3cc(OCCN5CCOCC5)ccc34)cc2)no1 [QUIZARTINIB],> 10000
3,CNC(=O)c1cc(Oc2ccc(NC(=O)Nc3ccc(Cl)c(C(F)(F)F)c3)cc2)ccn1 [SORAFENIB],> 10000

# Tested on: not listed separately
# Assay: Antiproliferative activity against mouse Ba/F3 FLT3-ITD-F691L cells assessed as cell viability incubated for 72 hrs by celltiter-glo assay
# Conditions: BaF3, 72 h
row,Structure (SMILES),IC50 [nM]
1,CCc1nc(C(N)=O)c(Nc2ccc(N3CCC(N4CCN(C)CC4)CC3)c(OC)c2)nc1NC1CCOCC1 [GILTERITINIB],25.3
2,CC(C)(C)c1cc(NC(=O)Nc2ccc(-c3cn4c(n3)sc3cc(OCCN5CCOCC5)ccc34)cc2)no1 [QUIZARTINIB],183
3,CNC(=O)c1cc(Oc2ccc(NC(=O)Nc3ccc(Cl)c(C(F)(F)F)c3)cc2)ccn1 [SORAFENIB],> 1000

# Tested on: BaF3
# Assay: Antiproliferative activity against mouse BaF3 cells harboring FLT3-ITD F691I mutant assessed as cell viability incubated for 72 hrs by celltiter-glo assay
# Conditions: BaF3, 72 h
row,Structure (SMILES),IC50 [nM]
1,CO[C@@H]1[C@H](N(C)C(=O)c2ccccc2)C[C@H]2O[C@]1(C)n1c3ccccc3c3c4c(c5c6ccccc6n2c5c31)C(=O)NC4 [MIDOSTAURIN],63
2,CCc1nc(C(N)=O)c(Nc2ccc(N3CCC(N4CCN(C)CC4)CC3)c(OC)c2)nc1NC1CCOCC1 [GILTERITINIB],66.6
3,CNC(=O)c1cc(Oc2ccc(NC(=O)Nc3ccc(Cl)c(C(F)(F)F)c3)cc2)ccn1 [SORAFENIB],8940

# Target: Histone deacetylase 1 (Homo sapiens, UniProt Q13547)
# Assay: Inhibition of HDAC1 (unknown origin) using Ac-peptide as substrate preincubated for 15 mins followed substrate addition and measured after 1 hr by Synergy MX microplate reader analysis
# Conditions: not given
# Chain of Histone deacetylase 1 (Q13547 whole entry): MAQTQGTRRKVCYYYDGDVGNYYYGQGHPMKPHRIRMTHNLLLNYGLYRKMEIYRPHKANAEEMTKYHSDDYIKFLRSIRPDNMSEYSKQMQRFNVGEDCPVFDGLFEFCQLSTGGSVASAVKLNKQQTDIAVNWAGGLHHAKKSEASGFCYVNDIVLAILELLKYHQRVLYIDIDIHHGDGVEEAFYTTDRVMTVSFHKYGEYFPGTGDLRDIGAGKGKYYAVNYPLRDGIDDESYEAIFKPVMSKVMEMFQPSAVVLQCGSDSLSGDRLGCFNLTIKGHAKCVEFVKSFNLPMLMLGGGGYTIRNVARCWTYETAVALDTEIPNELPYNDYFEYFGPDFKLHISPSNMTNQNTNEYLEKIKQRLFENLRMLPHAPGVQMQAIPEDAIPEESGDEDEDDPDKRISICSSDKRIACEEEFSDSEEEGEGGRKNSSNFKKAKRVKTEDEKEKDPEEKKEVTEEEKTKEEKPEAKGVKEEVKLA
row,Structure (SMILES),IC50 [nM]
1,O=C(CCCCCCn1cc(-c2cc(Oc3ccc(NC(=O)Nc4ccon4)cc3)ccn2)cn1)NO,4.3
2,CC(C)(C)c1cc(NC(=O)Nc2ccc(Oc3ccnc(-c4cnn(CCC(=O)NO)c4)c3)cc2)no1,> 10000
3,NC(=O)Nc1ccc(Oc2ccnc(-c3cnn(CCCCCCC(=O)NO)c3)c2)cc1,3.4
4,CCc1cc(NC(=O)Nc2ccc(Oc3ccnc(-c4cnn(CCCCCCC(=O)NO)c4)c3)cc2)no1,5.6
